Data reported in PubChem BioAssay (NCI).
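These data come from cells grown in 96-well plates and exposed to compound for 48 hours at five concentrations. TGI: total growth inhibition.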

Assays:
Test in all cases: NCI tumour cell line growth inhibition, 48 h
HOP-62 NSCLC = system: HOP-62 NSCLC
HT29 colon = system: HT29 colon
HOP-18 NSCLC = system: HOP-18 NSCLC
SR leukemia = system: SR leukemia
HCC-2998 colon = system: HCC-2998 colon
NCI-H460 lung = system: NCI-H460 lung
SNB-75 CNS = system: SNB-75 CNS
HCT-15 colon = system: HCT-15 colon
MALME-3M melanoma = system: MALME-3M melanoma
NCI-H23 lung = system: NCI-H23 lung
DMS 114 small cell lung = system: DMS 114 small cell lung
SF-539 CNS = system: SF-539 CNS
OVCAR-3 ovarian = system: OVCAR-3 ovarian
SK-MEL-5 melanoma = system: SK-MEL-5 melanoma
NCI-H522 lung = system: NCI-H522 lung
SF-268 CNS = system: SF-268 CNS
DMS 273 small cell lung = system: DMS 273 small cell lung
OVCAR-8 ovarian = system: OVCAR-8 ovarian
OVCAR-5 ovarian = system: OVCAR-5 ovarian
SK-MEL-2 melanoma = system: SK-MEL-2 melanoma
UACC-257 melanoma = system: UACC-257 melanoma
MOLT-4 leukemia = system: MOLT-4 leukemia
RPMI-8226 leukemia = system: RPMI-8226 leukemia
DLD-1 colon = system: DLD-1 colon
UACC-62 melanoma = system: UACC-62 melanoma
SNB-78 CNS = system: SNB-78 CNS
U251 CNS = system: U251 CNS
COLO 205 colon = system: COLO 205 colon
LXFL 529 NSCLC = system: LXFL 529 NSCLC
SNB-19 CNS = system: SNB-19 CNS
IGROV1 ovarian = system: IGROV1 ovarian
HCT-116 colon = system: HCT-116 colon
M19-MEL melanoma = system: M19-MEL melanoma
KM20L2 colon = system: KM20L2 colon
UO-31 renal = system: UO-31 renal
HOP-92 NSCLC = system: HOP-92 NSCLC
HL-60(TB) leukemia = system: HL-60(TB) leukemia
EKVX NSCLC = system: EKVX NSCLC
RXF 393 renal = system: RXF 393 renal
SN12C renal = system: SN12C renal
A549 NSCLC = system: A549 NSCLC
TK-10 renal = system: TK-10 renal
KM12 colon = system: KM12 colon
ACHN renal = system: ACHN renal
SK-MEL-28 melanoma = system: SK-MEL-28 melanoma
M14 melanoma = system: M14 melanoma
NCI-H226 lung = system: NCI-H226 lung
K-562 leukemia = system: K-562 leukemia
SF-295 CNS = system: SF-295 CNS
LOX IMVI melanoma = system: LOX IMVI melanoma
786-0 renal = system: 786-0 renal
SW-620 colon = system: SW-620 colon
SK-OV-3 ovarian = system: SK-OV-3 ovarian
CCRF-CEM leukemia = system: CCRF-CEM leukemia

N#CC(C#N)=c1ccc(=C2N3CCCC3CN2C23CC4CC(CC(C4)C2)C3)cc1 (centres undefined)
TGI (HOP-62 NSCLC): > 100 µM | TGI (HT29 colon): > 100 µM | TGI (HOP-18 NSCLC): > 100 µM | TGI (SR leukemia): > 100 µM | TGI (HCC-2998 colon): > 100 µM | TGI (NCI-H460 lung): > 100 µM | TGI (SNB-75 CNS): 78.8 µM | TGI (HCT-15 colon): > 100 µM | TGI (MALME-3M melanoma): > 100 µM | TGI (NCI-H23 lung): > 100 µM | TGI (DMS 114 small cell lung): > 100 µM | TGI (SF-539 CNS): > 100 µM | TGI (OVCAR-3 ovarian): > 100 µM | TGI (SK-MEL-5 melanoma): > 100 µM | TGI (NCI-H522 lung): > 100 µM | TGI (SF-268 CNS): > 100 µM | TGI (DMS 273 small cell lung): > 100 µM | TGI (OVCAR-8 ovarian): > 100 µM | TGI (OVCAR-5 ovarian): > 100 µM | TGI (SK-MEL-2 melanoma): > 100 µM | TGI (UACC-257 melanoma): > 100 µM | TGI (MOLT-4 leukemia): > 100 µM | TGI (RPMI-8226 leukemia): > 100 µM | TGI (DLD-1 colon): > 100 µM | TGI (UACC-62 melanoma): > 100 µM | TGI (SNB-78 CNS): > 100 µM | TGI (U251 CNS): > 100 µM | TGI (COLO 205 colon): > 100 µM | TGI (LXFL 529 NSCLC): > 100 µM | TGI (SNB-19 CNS): > 100 µM | TGI (IGROV1 ovarian): > 100 µM | TGI (HCT-116 colon): > 100 µM | TGI (M19-MEL melanoma): > 100 µM | TGI (KM20L2 colon): > 100 µM | TGI (UO-31 renal): > 100 µM | TGI (HOP-92 NSCLC): > 100 µM | TGI (HL-60(TB) leukemia): > 100 µM | TGI (EKVX NSCLC): > 100 µM | TGI (RXF 393 renal): > 100 µM | TGI (SN12C renal): > 100 µM | TGI (A549 NSCLC): > 100 µM | TGI (TK-10 renal): > 100 µM | TGI (KM12 colon): > 100 µM | TGI (ACHN renal): > 100 µM | TGI (SK-MEL-28 melanoma): > 100 µM | TGI (M14 melanoma): > 100 µM | TGI (NCI-H226 lung): > 100 µM | TGI (K-562 leukemia): > 100 µM | TGI (SF-295 CNS): > 100 µM | TGI (LOX IMVI melanoma): > 100 µM | TGI (786-0 renal): > 100 µM | TGI (SW-620 colon): > 100 µM | TGI (SK-OV-3 ovarian): > 100 µM | TGI (CCRF-CEM leukemia): > 100 µM
